{"source": "patent US20190337927A1", "about": "“PHOTOPROTECTIVE COMPOSITIONS CONTAINING MALASSEZIA-DERIVED COMPOUNDS AND/OR CHEMICAL ANALOGS THEREOF” (priority 2018, published 2019)", "key": {"Skin Type IV female": {"tested_on": "Skin Type IV female", "assay": "In vivo photoprotection proof of concept study: UVB-induced erythema after topical treatment", "parameters": "species or system human", "conditions": "one subject", "text": "The Malassezin 1% formulation used in this study contained the following ingredients: Water (aqua)—65.939%; Dimethyl isosorbide—20.000%; Olive Oil Glycereth-8 Esters—3.000%; Glycerin—2.991%; Coconut Alkanes—2.700%; Hydroxyethyl Acrylate/Sodium Acryloyldimethyl Taurate Copolymer—1.700%; Malassezin—1.000%; Pentylene Glycol—1.000%; Phenoxyethanol—0.640%; Coco-Caprylate/Caprate—0.300%; Caprylyl Glycol—0.200%; Chlorphenesin—0.160%; Sorbitan Isostearate—0.140%; Tocopherl—0.100%; Polysorbate 60—0.080%; and Disodium EDTA—0.050%.\nA Skin Type IV […] was included in this Proof of Concept study.\nA template of 6 squares was placed on the lower left back (1.5 cm×1.5 cm) of the test subject See FIG. 7.\nTwenty-four hours after irradiation, the subject returned for MED assessment.\nA second right lower square was treated twice daily from day 4 to day 7, and a third medial square for one application on day 7. The product vehicle was applied for 7 days twice daily on the left back. The subject returned to the research center for irradiation on day 7. Each test site was irradiated with 120 mJ of UVB exposure. The subject returned in 24 hours for assessment of phototoxicity/photoprotection.\nThe subject continued the experiment, receiving Malassezin 1% for a total of 14 days. […]"}, "[1]": {"target": "T1, arylhydrocarbon receptor (AhR) (Homo sapiens, UniProt P35869)", "T1 sequence (P35869 11-848)": "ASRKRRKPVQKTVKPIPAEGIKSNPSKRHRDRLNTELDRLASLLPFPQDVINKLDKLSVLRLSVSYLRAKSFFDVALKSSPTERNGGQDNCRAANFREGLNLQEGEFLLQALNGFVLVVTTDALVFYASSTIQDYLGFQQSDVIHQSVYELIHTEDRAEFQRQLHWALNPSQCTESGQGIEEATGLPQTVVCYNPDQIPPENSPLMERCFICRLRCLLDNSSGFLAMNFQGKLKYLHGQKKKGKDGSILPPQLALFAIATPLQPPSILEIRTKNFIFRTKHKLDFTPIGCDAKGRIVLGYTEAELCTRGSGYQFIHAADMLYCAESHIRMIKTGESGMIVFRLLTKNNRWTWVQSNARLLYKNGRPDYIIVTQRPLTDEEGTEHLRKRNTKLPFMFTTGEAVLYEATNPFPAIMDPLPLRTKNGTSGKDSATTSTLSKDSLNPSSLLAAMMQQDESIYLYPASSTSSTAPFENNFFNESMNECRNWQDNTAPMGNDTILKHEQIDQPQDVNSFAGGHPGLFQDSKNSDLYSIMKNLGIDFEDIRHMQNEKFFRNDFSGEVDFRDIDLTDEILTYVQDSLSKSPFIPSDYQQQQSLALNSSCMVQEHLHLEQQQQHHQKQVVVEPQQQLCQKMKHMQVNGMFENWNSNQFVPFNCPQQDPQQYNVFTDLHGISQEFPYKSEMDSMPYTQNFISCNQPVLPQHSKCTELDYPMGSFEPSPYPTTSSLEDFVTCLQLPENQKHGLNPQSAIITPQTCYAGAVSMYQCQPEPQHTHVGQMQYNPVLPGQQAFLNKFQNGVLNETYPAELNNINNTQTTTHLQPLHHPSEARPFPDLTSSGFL", "conditions": "cited from earlier work"}, "[2]": {"tested_on": "primary human melanocytes", "conditions": "cited from earlier work"}, "yeast model": {"tested_on": "yeast model", "conditions": "cited from earlier work"}, "[3]": {"conditions": "cited from earlier work"}, "Candida albicans": {"tested_on": "Candida albicans", "conditions": "cited from earlier work"}, "staphylococci": {"tested_on": "staphylococci", "conditions": "cited from earlier work"}}, "note": "Where two headings read alike, the source gives them in different places.", "data": [{"smiles": "O=Cc1c(Cc2c[nH]c3ccccc23)[nH]c2ccccc12", "note": "[Malassezin, 2-(1H-indol-3-ylmethyl)-1H-indole-3-carbaldehyde]", "values": [{"measurement": "UV-protective properties, study conclusion", "setting": "Skin Type IV female", "value": "UV-protective properties"}, {"measurement": "AhR activity", "setting": "[1]", "value": "agonist"}, {"measurement": "apoptosis induction", "setting": "[2]", "value": "induces apoptosis"}]}, {"smiles": "O=C1Nc2ccccc2/C1=C1/Nc2ccccc2C1=O", "note": "[Indirubin]", "values": [{"measurement": "AhR activity", "setting": "[1]", "value": "agonist"}]}, {"smiles": "O=C1OC(c2c[nH]c3ccccc23)=C(c2c[nH]c3ccccc23)C1=O", "note": "[Pityrialactone]", "values": [{"measurement": "UV protective properties", "setting": "yeast model", "value": "confirmed"}]}, {"smiles": "O=C(c1c[nH]c2ccccc12)c1nccc2c1[nH]c1ccccc12", "note": "[Pityriacitrin]", "values": [{"measurement": "UV protective effect overall", "setting": "[3]; in vitro and in vivo tests in humans", "value": "very weak"}, {"measurement": "sun protection factor (SPF)", "setting": "[3]; pityriacitrin concentration 1.25% in cream", "value": 1.4}, {"measurement": "sun protection factor (SPF)", "setting": "[3]; pityriacitrin concentration 2.5% in cream", "value": 1.5}, {"measurement": "sun protection factor (SPF)", "setting": "[3]; pityriacitrin concentration 5% in cream", "value": 1.7}, {"measurement": "UV-protective effect", "setting": "Candida albicans", "value": "UV-protective effect"}, {"measurement": "toxicity", "setting": "Candida albicans; ranges tested", "value": "no toxicity"}, {"measurement": "UV-protective effect", "setting": "staphylococci", "value": "UV-protective effect"}, {"measurement": "toxicity", "setting": "staphylococci; ranges tested", "value": "no toxicity"}]}]}
